Holding throughout (assay type): biochemical
The target in one assay is T1, aggrecanase-1 (Homo sapiens, UniProt O75173).
T1 sequence (O75173 213-837): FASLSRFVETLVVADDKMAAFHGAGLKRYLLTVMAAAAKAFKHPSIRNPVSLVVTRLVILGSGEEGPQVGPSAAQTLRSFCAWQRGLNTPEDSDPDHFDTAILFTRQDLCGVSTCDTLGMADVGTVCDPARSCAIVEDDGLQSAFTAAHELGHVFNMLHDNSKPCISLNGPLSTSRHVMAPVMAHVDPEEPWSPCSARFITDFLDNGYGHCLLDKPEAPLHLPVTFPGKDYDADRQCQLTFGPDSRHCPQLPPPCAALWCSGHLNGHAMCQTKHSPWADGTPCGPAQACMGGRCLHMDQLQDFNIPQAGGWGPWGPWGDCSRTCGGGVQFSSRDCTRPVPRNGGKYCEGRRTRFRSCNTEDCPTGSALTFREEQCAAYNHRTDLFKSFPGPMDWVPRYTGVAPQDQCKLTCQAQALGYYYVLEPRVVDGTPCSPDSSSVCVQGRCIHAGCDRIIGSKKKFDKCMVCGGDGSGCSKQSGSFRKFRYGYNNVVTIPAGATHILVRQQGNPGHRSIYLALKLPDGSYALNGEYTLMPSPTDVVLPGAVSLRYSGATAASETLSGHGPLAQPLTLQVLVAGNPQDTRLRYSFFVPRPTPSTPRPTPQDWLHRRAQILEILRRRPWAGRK
As to the kind of experiment: Aggrecanase-1 inhibitory action, Particle Assay (GAG release from aggrecan-containing polyacrylamide particles). To be noted: 37° C. for 15 hr, read-out: Experimental Example 1 IC50 AG1. The gist of the method: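 IC50 (μM) derived from % inhibition, referenced to enzyme-free and inhibitor-free wells, of GAG release read as 1,9-dimethylmethylene blue absorbance at 595 nm (chondroitin sulfate standard). Substrate: aggrecan-bearing polyacrylamide particles, exposed to enzyme plus compound in Tris-HCl for 15 hr at 37 °C.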

A further assay addresses T2, MMP-1 (Homo sapiens, UniProt P03956).
T2 sequence (P03956 100-469): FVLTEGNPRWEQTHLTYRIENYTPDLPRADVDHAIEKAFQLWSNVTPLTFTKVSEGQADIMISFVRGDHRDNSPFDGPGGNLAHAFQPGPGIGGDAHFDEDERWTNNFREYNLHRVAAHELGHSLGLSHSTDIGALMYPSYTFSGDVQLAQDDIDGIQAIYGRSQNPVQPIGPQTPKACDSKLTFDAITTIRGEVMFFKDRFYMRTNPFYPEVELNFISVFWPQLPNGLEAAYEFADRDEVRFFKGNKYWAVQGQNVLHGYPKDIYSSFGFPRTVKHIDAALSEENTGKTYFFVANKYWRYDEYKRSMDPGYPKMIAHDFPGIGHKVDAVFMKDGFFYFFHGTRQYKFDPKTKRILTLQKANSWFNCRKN
The experiment in a line: MMP-1 inhibitory action, Type I collagen Activity Measurement kit (FITC-labeled collagen type I). To be noted: 37° C. for 3 hr, read-out: Experimental Example 2 IC50 MMP1.

The next assay deals with T3, Recombinant Human MMP-13 (Homo sapiens, UniProt P45452).
T3 construct: purchased R&D systems 511-MM
The experiment in a line: MMP-13 inhibition, MMP-13 specific fluorescent substrate with quencher. As to conditions: synthetic substrate 7-MCA-Pro-CHA-Gly-NVal-His-Ala-DPA, 25° C. for 1 h; read-out: Experimental Example 3 IC50 MMP13. As for the experimental part: Inhibitory activity of tested compounds on MMP-13 was measured using MMP-13 specific fluorescent substrate with quencher.
The enzyme and substrate were diluted with Tris-HCl buffer, and test compounds were diluted with dimethyl sulfoxide (DMSO).
Test compounds and the enzyme (Recombinant Human MMP-13: R&D systems, 511-MM) were added into 96-well plate. The reaction was initiated by adding synthetic substrate (7-MCA-Pro-CHA-Gly-NVal-His-Ala-DPA: enzyme systems products, Met-06) into the plate. After incubation at 25° C. for 1 h, the reaction was terminated by addition of reaction terminating solution containing acetic acid. Fluorescence intensity of each well was measured (Ex: 325 nm, Em: 405 nm) and the MMP-13 inhibitory activity of the compound in each well (%) was calculated based on the values of enzyme-free well and inhibitor-free well. The inhibitory activity of the compound was represented as IC50 (μM).

The record followed here is US20050222146A1, “N-substituted-n-sulfonylaminocyclopropane compounds and pharmaceutical use thereof” (priority 2003, published 2005).

`CN([C@@]1(C(=O)O)C[C@@H]1c1ccccc1)S(=O)(=O)c1ccc(-c2ccc(Cl)cc2)s1` [Example 2-03, (1S,2R)-1-{[5-(4-Chloro-phenyl)-thiophene-2-sulfonyl]-methyl-amino}-2-phenyl-cyclopropanecarboxylic acid]: the figures for the IC50 on aggrecanase-1, on MMP-1 and on Recombinant Human MMP-13 were no less than 1 µM, no less than 10 µM and no less than 10 µM, respectively.

Turning to `O=C(O)C1(N(CCO)S(=O)(=O)c2ccc(-c3ccc(Cl)cc3)s2)CC1c1ccccc1` (stereo not drawn) [Example 2-04, (1R*,2S*)-1-[[5-(4-Chloro-phenyl)-thiophene-2-sulfonyl]-(2)-hydroxy-ethyl)-amino]-2-phenyl-cyclopropanecarboxylic acid], the IC50 was no less than 1 µM at aggrecanase-1, no less than 10 µM at MMP-1 and no less than 1 µM at Recombinant Human MMP-13.

Turning to `O=C(O)CN([C@]1(C(=O)O)C[C@H]1c1ccccc1)S(=O)(=O)c1ccc(-c2ccc(Cl)cc2)s1` [Example 2-08, (1R,2S)-1-{Carboxymethyl-[5-(4-chloro-phenyl)-thiophene-2-sulfonyl]-amino}-2-phenyl-cyclopropanecarboxylic acid], the IC50 at aggrecanase-1 was less than 0.1 µM; at MMP-1, no less than 10 µM; on Recombinant Human MMP-13, no less than 10 µM.

With `O=C(O)CN([C@]1(C(=O)O)C[C@H]1c1ccccc1)S(=O)(=O)c1ccc(-c2cc(C(F)(F)F)on2)s1` [Example 2-09, (1R,2S)-1-{Carboxymethyl-[5-(5-trifluoromethyl-isoxazol-3-yl)-thiophene-2-sulfonyl]-amino}-2-phenyl-cyclopropanecarboxylic acid], the IC50 was less than 0.1 µM at aggrecanase-1, no less than 10 µM on MMP-1 and no less than 1 µM on Recombinant Human MMP-13.

As for `O=C(O)CN([C@@]1(C(=O)O)C[C@@H]1c1ccccc1)S(=O)(=O)c1ccc(-c2ccc(Cl)cc2)s1` [Example 2-10, (1S,2R)-1-{Carboxymethyl-[5-(4-chloro-phenyl)-thiophene-2-sulfonyl]-amino}-2-phenyl-cyclopropanecarboxylic acid], the results for the IC50 on aggrecanase-1, at MMP-1 and on Recombinant Human MMP-13 were less than 1 µM, no less than 10 µM and no less than 10 µM, respectively.

Regarding `CN1CCN(C(=O)CN([C@@]2(C(=O)O)C[C@@H]2c2ccccc2)S(=O)(=O)c2ccc(-c3ccc(Cl)cc3)s2)CC1` [Example 2-11, (1S,2R)-1-{[5-(4-Chloro-phenyl)-thiophene-2-sulfonyl]-[2-(4-methyl-piperazin-1-yl)-2-oxo-ethyl]-amino}-2-phenyl-cyclopropanecarboxylic acid], the IC50 on aggrecanase-1 was no less than 1 µM; on MMP-1 it was no less than 10 µM; at Recombinant Human MMP-13, no less than 10 µM.

Consider `CN([C@]1(C(=O)O)C[C@H]1c1ccccc1)S(=O)(=O)c1ccc(-c2ccc(Cl)cc2)s1` [Example 2-12, (1R,2S)-1-{[5-(4-Chloro-phenyl)-thiophene-2-sulfonyl]-methyl-amino}-2-phenyl-cyclopropanecarboxylic acid], for which the IC50 on aggrecanase-1 was no less than 1 µM; at MMP-1, no less than 10 µM; at Recombinant Human MMP-13, no less than 1 µM.

As for `CN1CCN(C(=O)OCCN([C@]2(C(=O)O)C[C@H]2c2ccccc2)S(=O)(=O)c2ccc(-c3ccc(Cl)cc3)s2)CC1` [Example 2-15, 4-Methyl-piperazine-1-carboxylic acid 2-{((1R,2S)-1-carboxy-2-phenyl-cyclopropyl)-[5-(4-chloro-phenyl)-thiophene-2-sulfonyl]-amino}-ethyl ester], the results for the IC50 on aggrecanase-1, at MMP-1 and on Recombinant Human MMP-13 were no less than 1 µM, no less than 10 µM and no less than 1 µM, respectively.

Consider `O=C(CN([C@]1(C(=O)O)C[C@H]1c1ccccc1)S(=O)(=O)c1ccc(-c2ccc(Cl)cc2)s1)N1CCOCC1` [Example 2-16, (1R,2S)-1-[[5-(4-Chloro-phenyl)-thiophene-2-sulfonyl]-(2-morpholin-4-yl-2-oxo-ethyl)-amino]-2-phenyl-cyclopropanecarboxylic acid], for which the results for the IC50 at aggrecanase-1, on MMP-1 and at Recombinant Human MMP-13 were no less than 1 µM, no less than 10 µM and no less than 1 µM, respectively.

Take `CN1CCN(C(=O)CN([C@]2(C(=O)O)C[C@H]2c2ccccc2)S(=O)(=O)c2ccc(-c3ccc(Cl)cc3)s2)CC1` [Example 2-17, (1R,2S)-1-{[5-(4-Chloro-phenyl)-thiophene-2-sulfonyl]-[2-(4-methyl-piperazin-1-yl)-2-oxo-ethyl]-amino}-2-phenyl-cyclopropanecarboxylic acid]: the IC50 on aggrecanase-1 was no less than 1 µM; on MMP-1, no less than 10 µM; on Recombinant Human MMP-13, no less than 1 µM.

As to `O=C(O)[C@@]1(N(CCCO)S(=O)(=O)c2ccc(-c3ccc(Cl)cc3)s2)C[C@H]1c1ccccc1` [Example 2-18, (1R,2S)-1-[[5-(4-Chloro-phenyl)-thiophene-2-sulfonyl]-(3-hydroxy-propyl)-amino]-2-phenyl-cyclopropanecarboxylic acid], the IC50 at aggrecanase-1 is no less than 1 µM; on MMP-1, no less than 10 µM; on Recombinant Human MMP-13, less than 1 µM.

Take `O=C(OCCN([C@]1(C(=O)O)C[C@H]1c1ccccc1)S(=O)(=O)c1ccc(-c2ccc(Cl)cc2)s1)N1CCOCC1` [Example 2-19, Morpholine-4-carboxylic acid 2-{((1R,2S)-1-carboxy-2-phenyl-cyclopropyl)-[5-(4-chloro-phenyl)-thiophene-2-sulfonyl]-amino}-ethyl ester]: the IC50 was no less than 1 µM at aggrecanase-1, no less than 10 µM on MMP-1 and less than 1 µM at Recombinant Human MMP-13.

As to `O=C(OCCCN([C@]1(C(=O)O)C[C@H]1c1ccccc1)S(=O)(=O)c1ccc(-c2ccc(Cl)cc2)s1)N1CCOCC1` [Example 2-20, Morpholine-4-carboxylic acid 3-{((1R,2S)-1-carboxy-2-phenyl-cyclopropyl)-[5-(4-chloro-phenyl)-thiophene-2-sulfonyl]-amino}-propyl ester], the IC50 on aggrecanase-1 was no less than 1 µM; on MMP-1, no less than 10 µM; at Recombinant Human MMP-13, no less than 1 µM.

Regarding `CN1CCN(C(=O)OCCCN([C@]2(C(=O)O)C[C@H]2c2ccccc2)S(=O)(=O)c2ccc(-c3ccc(Cl)cc3)s2)CC1` [Example 2-21, 4-Methyl-piperazine-1-carboxylic acid 3-{((1R,2S)-1-carboxy-2-phenyl-cyclopropyl)-[5-(4-chloro-phenyl)-thiophene-2-sulfonyl]-amino}-propyl ester], the IC50 on aggrecanase-1 is no less than 1 µM; at MMP-1 it was no less than 10 µM; at Recombinant Human MMP-13, no less than 1 µM.

Take `O=C1CN(S(=O)(=O)c2ccc(-c3ccc(Cl)cc3)s2)C2(C(=O)O)CC2(c2ccccc2)CN1` (stereo not drawn) [Example 2-25, 1R*,7S*)-2-[5-(4-Chloro-phenyl)-thiophene-2-sulfonyl]-4-oxo-7-phenyl-2,5-diaza-bicyclo[5.1.0]octane-1-carboxylic acid]: the IC50 was no less than 1 µM at aggrecanase-1, no less than 10 µM at MMP-1 and no less than 1 µM at Recombinant Human MMP-13.

Take `CN1CC2(c3ccccc3)CC2(C(=O)O)N(S(=O)(=O)c2ccc(-c3ccc(Cl)cc3)s2)CC1=O` (stereo not drawn) [Example 2-27, (1R*,7R*)-2-[5-(4-Chloro-phenyl)-thiophene-2-sulfonyl]-5-methyl-4-oxo-7-phenyl-2-,5-diaza-bicyclo[5.1.0]octane-1-carboxylic acid]: the IC50 at aggrecanase-1 is no less than 1 µM; on MMP-1, no less than 10 µM; on Recombinant Human MMP-13, no less than 1 µM.

A word on the IC50: it is the point on the concentration scale where inhibition reaches its midpoint.
